Patent US7427612B2, “Benzoyl-piperazine derivatives” (Hoffmann-La Roche Inc., priority 2003, dated 2008)

Target: T1, mGlyT-1b (Mus musculus, UniProt P28571)
T1 construct: host or cells: Flp-in CHO cells, stably transfected
T1 sequence (P28571 1-651 isoform P28571-2): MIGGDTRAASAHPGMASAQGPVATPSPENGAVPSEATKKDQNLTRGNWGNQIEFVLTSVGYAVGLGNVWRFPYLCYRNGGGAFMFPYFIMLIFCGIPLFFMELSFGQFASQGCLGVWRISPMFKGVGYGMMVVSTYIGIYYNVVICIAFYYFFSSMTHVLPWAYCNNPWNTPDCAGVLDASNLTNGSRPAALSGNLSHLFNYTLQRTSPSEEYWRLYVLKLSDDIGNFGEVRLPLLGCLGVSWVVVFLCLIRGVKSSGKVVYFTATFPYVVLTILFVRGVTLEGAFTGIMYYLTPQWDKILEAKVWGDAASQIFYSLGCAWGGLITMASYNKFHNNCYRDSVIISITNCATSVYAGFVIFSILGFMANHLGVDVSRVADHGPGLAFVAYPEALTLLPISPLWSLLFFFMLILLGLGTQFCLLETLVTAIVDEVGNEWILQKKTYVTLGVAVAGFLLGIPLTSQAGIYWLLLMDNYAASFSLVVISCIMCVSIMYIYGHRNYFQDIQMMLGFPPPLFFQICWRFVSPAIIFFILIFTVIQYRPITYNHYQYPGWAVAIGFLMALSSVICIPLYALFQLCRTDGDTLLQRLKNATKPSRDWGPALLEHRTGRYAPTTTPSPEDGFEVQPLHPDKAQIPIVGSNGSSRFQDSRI
Experiment: Glycine uptake inhibition assay (mGlyT-1b)
Type: cell-based
Details: inhibition of [3H]-glycine uptake in Flp-in-CHO cells stably transfected with mGlyT1b cDNA; 20 min at 22° C.
Description: DMEM complete medium: Nutrient mixture F-12 (Gibco Life-technologies), fetal bovine serum (FBS) 5%, (Gibco life technologies), Penicillin/Streptomycin 1% (Gibco life technologies), Hygromycin 0.6 mg/ml (Gibco life technologies), Glutamine 1 mM Gibco life technologies)
Uptake buffer (UB): 150 mM NaCl, 10 mM Hepes-Tris, pH 7.4, 1 mM CaCl2, 2.5 mM KCl, 2.5 mM MgSO4, 10 mM (+) D-glucose. Flp-in™—CHO (Invitrogen Cat n° R758-07)cells stably transfected with mGlyT1b cDNA.
Glycine uptake inhibition assay (mGlyT-1b)
On Day 1 mammallian cells, (Flp-in™—CHO), transfected with mGlyT-1b cDNA, were plated at the density of 40,000 cells/well in complete F-12 medium, without hygromycin in 96-well culture plates. On day 2, the medium was aspirated and the cells were washed twice with uptake buffer (UB). The cells were then incubated for 20 min at 22° C. with either (i) no potential competitor, (ii) 10 mM non-radioactive glycine, (iii) a concentration of a potential inhibitor. A range of concentrations of the potential inhibitor was used to generate data for calculating the concentration of inhibitor resulting in 50% of the effect (e.g. IC50, the concentration of the competitor inhibiting glycine uptake of 50%). A solution was then immediately added containing [^3H]-glycine 60 nM (11-16 Ci/mmol) and 25 μM non-radioactive glycine. The plates were incubated with gentle shaking and the reaction was stopped by aspiration of the mixture and washing (three times) with ice-cold UB. The cells were lysed with scintillation liquid, shaken 3 hours and the radioactivity in the cells was counted using a scintillation counter.

SMILES	IC50
N#Cc1cc(C(F)(F)F)ccc1N1CCN(C(=O)c2cc([N+](=O)[O-])ccc2N2CCOCC2)CC1 [Example 186, 2-[4-(2-Morpholin-4-yl-5-nitro-benzoyl)-piperazin-1-yl]-5-trifluoromethyl-benzonitrile]	15 nM
CCN(CC)c1ccc([N+](=O)[O-])cc1C(=O)N1CCN(c2ccc(C(C)=O)cc2F)CC1 [Example 11, 1-{4-[4-(2-Diethylamino-5-nitro-benzoyl)-piperazin-1-yl]-3-fluoro-phenyl}-ethanone]	15 nM
CS(=O)(=O)c1ccc(N2CCCCC2)c(C(=O)N2CCN(c3ccc(C(F)(F)F)cc3F)CC2)c1 [Example 219, [4-(2-Fluoro-4-trifluoromethyl-phenyl)piperazin-1-yl]-(5-methanesulfonyl-2-piperidin-1-yl-phenyl)-methanone]	17 nM
CNS(=O)(=O)c1ccc(N2CCCCC2)c(C(=O)N2CCN(c3ccc(C#N)cc3F)CC2)c1 [Example 247, 3-[4-(4-Cyano-2-fluoro-phenyl)-piperazine-1-carbonyl]-N-methyl-4-piperidin-1-yl-benzene-sulfonamide]	14 nM
CC(=O)c1ccc(N2CCN(C(=O)c3cc([N+](=O)[O-])ccc3N3CCCC(O)C3)CC2)c(F)c1 (stereo not shown) [Example 45, 1-(3-Fluoro-4-{4-[2-(3-hydroxy-piperidin-1-yl)-5-nitro-benzoyl]-piperazin-1-yl}-phenyl)-ethanone]	19 nM
CC(=O)c1ccc(N2CCN(C(=O)c3cc([N+](=O)[O-])ccc3N3CCC(C)CC3)CC2)c(F)c1 [Example 36, 1-(3-Fluoro-4-{4-[2-(4-methyl-piperidin-1-yl)-5-nitro-benzoyl]-piperazin-1-yl}-phenyl)-ethanone]	14 nM
CNS(=O)(=O)c1ccc(N2CCCCC2)c(C(=O)N2CCN(c3ccc(C(C)=O)cc3F)CC2)c1 [Example 245, 3-[4-(4-Acetyl-2-fluoro-phenyl)-piperazine-1-carbonyl]-N-methyl-4-piperidin-1-yl-benzene-sulfonamide]	18 nM
CNS(=O)(=O)c1ccc(N2CCOCC2)c(C(=O)N2CCN(c3ccc(C(F)(F)F)cc3F)CC2)c1 [Example 263, 3-[4-(2-Fluoro-4-trifluoro-methyl-phenyl)-piperazine-1-carbonyl]-N-methyl-4-morpholin-4-yl-benzene-sulfonamide]	10 nM
CNS(=O)(=O)c1ccc(N2CCCCC2)c(C(=O)N2CCN(c3ccc(C#N)cc3)CC2)c1 [Example 246, 3-[4-(4-Cyano-phenyl)-piperazine-1-carbonyl]-N-methyl-4-piperidin-1-yl-benzenesulfonamide]	11 nM
CNS(=O)(=O)c1ccc(N2CCCC2)c(C(=O)N2CCN(c3ccc(C#N)cc3F)CC2)c1 [Example 234, 3-[4-(4-Cyano-2-fluoro-phenyl)-piperazine-1-carbonyl]-N-methyl-4-pyrrolidin-1-yl-benzenesulfonamide]	10 nM
CC(=O)c1ccc(N2CCN(C(=O)c3cc(S(C)(=O)=O)ccc3N3CCCCCC3)CC2)c(F)c1 [Example 76, 1-{4-[4-(2-Azepan-1-yl-5-methanesulfonyl-benzoyl)-piperazin-1-yl]-3-fluoro-phenyl}-ethanone]	19 nM
CS(=O)(=O)c1ccc(N2CCCCC2)c(C(=O)N2CCN(c3ccc(C(F)(F)F)c(F)c3)CC2)c1 [Example 220, [4-(3-Fluoro-4-trifluoromethyl-phenyl)piperazin-1-yl]-(5-methanesulfonyl-2-piperidin-1-yl-phenyl)-methanone]	19 nM
CS(=O)(=O)c1ccc(N2CCCCC2)c(C(=O)N2CCN(c3ccc(C#N)cc3F)CC2)c1 [Example 216, 3-Fluoro-4-[4-(5-methanesulfonyl-2-piperidin-1-yl-benzoyl)-piperazin-1-yl]-benzonitrile]	12 nM
CC(=O)c1ccc(N2CCN(C(=O)c3cc([N+](=O)[O-])ccc3NCC3CC3)CC2)c(F)c1 [Example 4, 1-(4-{4-[2-(Cyclopropylmethyl-amino)-5-nitro-benzoyl]-piperazin-1-yl}-3-fluoro-phenyl)-ethanone]	13 nM
CNS(=O)(=O)c1ccc(N2CCCCC2)c(C(=O)N2CCN(c3ccc(C(F)(F)F)c(F)c3)CC2)c1 [Example 251, 3-[4-(3-Fluoro-4-trifluoro-methyl-phenyl)-piperazine-1-carbonyl]-N-methyl-4-piperidin-1-yl-benzenesulfonamide]	19 nM
CC(=O)c1ccc(N2CCN(C(=O)c3cc(S(C)(=O)=O)ccc3N3CCCC3)CC2)c(F)c1 [Example 83, 1-{3-Fluoro-4-[4-(5-methanesulfonyl-2-pyrrolidin-1-yl-benzoyl)-piperazin-1-yl]-phenyl}-ethanone]	19 nM

The remaining lines, values ahead:

IC50	SMILES
4 nM	CNS(=O)(=O)c1ccc(N2CCCC2)c(C(=O)N2CCN(c3ccc(C(F)(F)F)c(F)c3)CC2)c1 [Example 236, 3-[4-(3-Fluoro-4-trifluoromethyl-phenyl)-piperazine-1-carbonyl]-N-methyl-4-pyrrolidin-1-yl-benzenesulfonamide]
6.5 nM	CNS(=O)(=O)c1ccc(N2CCCC2)c(C(=O)N2CCN(c3ccc(C(F)(F)F)cc3F)CC2)c1 [Example 235, 3-[4-(2-Fluoro-4-trifluoro-methyl-phenyl)-piperazine-1-carbonyl]-N-methyl-4-pyrrolidin-1-yl-benzenesulfonamide]
2.1 nM	CC(=O)c1ccc(N2CCN(C(=O)c3cc([N+](=O)[O-])ccc3NC3CCC3)CC2)c(F)c1 [Example 20, 1-{4-[4-(2-Cyclobutylamino-5-nitro-benzoyl)-piperazin-1-yl]-3-fluoro-phenyl}-ethanone]
10 nM	CC(=O)c1ccc(N2CCN(C(=O)c3cc([N+](=O)[O-])ccc3NC3CCCCC3)CC2)c(F)c1 [Example 6, 1-{4-[4-(2-Cyclohexylamino-5-nitro-benzoyl)-piperazin-1-yl]-3-fluoro-phenyl}-ethanone]
2.5 nM	CC(=O)c1ccc(N2CCN(C(=O)c3cc([N+](=O)[O-])ccc3NC(C)C)CC2)c(F)c1 [Example 18, 1-{3-Fluoro-4-[4-(2-isopropylamino-5-nitro-benzoyl)-piperazin-1-yl]-phenyl}-ethanone]
10 nM	CNS(=O)(=O)c1ccc(N2CCCCC2)c(C(=O)N2CCN(c3ccc(C#N)c(F)c3)CC2)c1 [Example 248, 3-[4-(4-Cyano-3-fluoro-phenyl)-piperazine-1-carbonyl]-N-methyl-4-piperidin-1-yl-benzenesulfonamide]
3 nM	CC(=O)c1ccc(N2CCN(C(=O)c3cc([N+](=O)[O-])ccc3NCC(C)C)CC2)c(F)c1 [Example 19, 1-{3-Fluoro-4-[4-(2-isobutylamino-5-nitro-benzoyl)-piperazin-1-yl]-phenyl}-ethanone]
6 nM	CC(=O)c1ccc(N2CCN(C(=O)c3cc([N+](=O)[O-])ccc3N3CCCCC3C)CC2)c(F)c1 (stereo not shown) [Example 35, 1-(3-Fluoro-4-{4-[2-(2-methyl-piperidin-1-yl)-5-nitro-benzoyl]-piperazin-1-yl}-phenyl)-ethanone]
3.3 nM	CC(=O)c1ccc(N2CCN(C(=O)c3cc([N+](=O)[O-])ccc3N3CCCCCC3)CC2)c(F)c1 [Example 28, 1-{4-[4-(2-Azepan-1-yl-5-nitro-benzoyl)-piperazin-1-yl]-3-fluoro-phenyl}-ethanone]
